We go through 4 compounds from patent publication US20080200428A1, “Antiproliferative Drug” (priority 2005, published 2008).

pIC50: −log10 of the molar value. Marks after values point to notes of the source that are not given here.

The test system of assay [1] is B16/F10 melanoma cells. The assay can be described thus: In-vivo antiproliferative activity: liver metastases after intraspleen implant of B16/F10 melanoma. The arrangement: species or system BD2F1 mice. As to conditions: for Animals free of macroscopically detectable liver metastases over total number of mice / Mice with metastases larger than 3 mm / Mice with more than 3 visible hepatic tumour nodules / Spleen weight: Day 21. The procedure: BD2F1 mice weighing 18-20 g were implanted intraspleen (i.s) with 100.000 B16/F10 melanoma cells on Day 0, under sterile conditions and Zoletil® (70 mg/kg), anaesthesia, following surgical opening of peritoneum and spleen immobilisation. Tumour cells, suspended in diluted Matrigel® (150 μg/ml), were injected i.s. in a volume of 0.05 ml. The B16F10 melanoma cells were cultured in Modified Eagle Medium. Cells were maintained in a humidified 5% CO2 atmosphere at 37° C. Animals were then randomly divided into 5 groups (each of 7-8 female), implanted i.s. with 100.000 B16/F10 melanoma cells on Day 0, were treated i.v. (on Days 3, 6 and 9) with HA-MTX at 2, 1 and 0.50 mg/kg/day or MTX-Na at 8.5, 6 and 3 mg/kg/day. Doses are referred to equivalents of MTX. The data originate from 4 separate experiments.
The evaluation of livers and counting of liver metastases under a low power stereo microscope equipped with a calibrated grid was performed on Day 21. Livers were then stored in formaldehyde for preparation for light microscopy observations.

Assay [2] deals with IGR-OV1 human ovary carcinoma cells. As to the kind of experiment: In-vitro antiproliferative activity, MTT test. The assay is classed as cell-based. As to conditions: 5 days treatment, MTT on day 6, read-out: IC50, concentration necessary to reduce cell growth to 50% of control. The procedure:
(§1) Antiproliferative activity of the conjugates was determined on 2 lines of human mammary carcinoma (MCF-7, MDA-MB-231), and on 2 lines of human ovary carcinoma (SK-OV-3, IGR-OV1) with different Reduced Folate Carrier (RFC) expression, and on a non-tumour line originating from healthy mammary ductal epithelium (HBL-100 line). Cells were incubated in 96-well plates for 5 days in complete medium (consisting of DMEM/F12, with 10% FBS, foetal bovine serum, 1% L-glutamine 100× (200 mM) and 1% penicillin-streptomycin (Euroclone) for MCF-7, IGROV-1 and MDA-MB-231; RPMI-1640 with 10% FBS, foetal bovine serum, 1% L-glutamine 100× (200 mM) and 1% penicillin-streptomycin (Euroclone) for SKOV-1; McCoy's with 10% FBS, foetal bovine serum, 1% L-glutamine 100× (200 mM) and 1% penicillin-streptomycin (Sigma) for HBL-100 at 37° C. and controlled atmosphere (5% CO2), with MTX-Na or with conjugate; the conjugates were tested at doses equimolar with those of MTX-Na, in the range 1-30 nM. Cytotoxicity was determined on day 6 (after 5 days treatments) by the MTT test, by measuring cell viability as the cell metabolic capacity to transform the tetrazolium salt of MTT in the blue formazan, by mitochondrial dehydrogenases; the blue colour is read at 570 nm with a spectrophotometer. The following conjugates were tested.
Background: Tetrazolium assays rely on reduction of a dye to a coloured formazan, in cell work by metabolically active cells.

Assay [3] has as its system MCF-7 human mammary carcinoma cells. The assay can be described thus: In-vitro antiproliferative activity, MTT test. The assay is classed as cell-based. As to conditions: 5 days treatment, MTT on day 6, read-out: IC50, concentration necessary to reduce cell growth to 50% of control. The procedure: as §1
In assay [4] the test system is SK-OV-3 human ovary carcinoma cells. The assay can be described thus: In-vitro antiproliferative activity, MTT test. The assay is classed as cell-based. As to conditions: 5 days treatment, MTT on day 6, read-out: IC50, concentration necessary to reduce cell growth to 50% of control. The procedure:
as §1

Assay [5] concerns HBL-100 non-tumour line from healthy mammary ductal epithelium. As to the kind of experiment: In-vitro antiproliferative activity, MTT test. Format: cell-based, human. The conditions noted are these: 5 days treatment, MTT on day 6, read-out: IC50, concentration necessary to reduce cell growth to 50% of control. The procedure: as §1
[6] abbreviates: 0.5 mg MTX/kg/die i.v. on days 3, 6, 9.
Setting [7] is: 1 mg MTX/kg/die i.v. on days 3, 6, 9.
Setting [8] is: 2 mg MTX/kg/die i.v. on days 3, 6, 9.
The mark [9] stands for this setting: 3 mg MTX/kg/die i.v. on days 3, 6, 9.
Setting [10] is: 6 mg MTX/kg/die i.v. on days 3, 6, 9.
The mark [11] stands for this setting: 8.5 mg MTX/kg/die i.v. on days 3, 6, 9.

As for HA-MTX [Ex 18], in assay [1] (setting [6]), the “Animals free of macroscopically detectable liver metastases over total number of mice” value (“Animals free … over total number of mice” below) is on record as 6/15**, the “Mice with metastases larger than 3 mm” value is 13%, the “Mice with more than 3 visible hepatic tumour nodules” value is given as 27% and the Spleen weight worked out at 155 ± 16 mg. In addition, in assay [1] (setting [7]), the “Animals free … over total number of mice” value was 9/16***, the “Mice with metastases larger than 3 mm” value amounted to 0%, the “Mice with more than 3 visible hepatic tumour nodules” value was determined as 31% and the Spleen weight amounted to 199 ± 27 mg. In assay [1] (setting [8]), the “Animals free … over total number of mice” value is reported as 14/14***^§, the “Mice with metastases larger than 3 mm” value is reported as 0%^; 0%°, the “Mice with more than 3 visible hepatic tumour nodules” value is 0%^; 0%° and the Spleen weight is 150 ± 37 mg. Besides, the “Dose giving comparable liver metastasis reduction, as fraction of the MTX-Na dose” value in assay [1] (1 and 0.5 mg/kg/day vs 6 and 3 mg/kg/day MTX-Na) is listed as “⅙”. Moreover, in assay [1] (both after i.v. and i.p. administration), the “Prevention of formation of liver metastasis” value is given as “effective in preventing the formation of liver metastasis”. Further, in assay [1] (i.v. 2 mg/kg/day (MTX equivalents) on days 3,6,9), the “Effect on liver metastases of B16/F10 melanoma” value is listed as “complete disappearance of liver metastases”.

`CN(Cc1cnc2nc(N)nc(N)c2n1)c1ccc(C(=O)N[C@@H](CCC(=O)O)C(=O)O)cc1` [MTX-Na, methotrexate, reference compound]: the pIC50 was 6.85 in assay [2], 7.09 in assay [3], 7.39 in assay [4] and 6.30 in assay [5]. In addition, the “Animals free … over total number of mice” value was 6/16* in assay [1] (setting [9]), 7/14** in assay [1] (setting [10]) and 8/16** in assay [1] (setting [11]). The “Mice with metastases larger than 3 mm” value in assay [1] (setting [9]) was 19%; in assay [1] (setting [10]) it was 0%; in assay [1] (setting [11]), 0%. For the same compound, the “Mice with more than 3 visible hepatic tumour nodules” value is 38% in assay [1] (setting [9]), 21% in assay [1] (setting [10]) and 13% in assay [1] (setting [11]). For the same compound, the values for the Spleen weight in assay [1] (setting [9]), in assay [1] (setting [10]) and in assay [1] (setting [11]) were 227 ± 36 mg, 159 ± 7 mg and 149 ± 24 mg, respectively.

Consider “6-O-Butyryl-6-O-methotrexyl-hyaluronic acid [Ex 24]”, for which the pIC50 in assay [2] was 5.67; in assay [3], 5.77; in assay [4] it was 5.78; in assay [5] it was 5.68.

As to “6-O-acetyl-6-O-methotrexyl-hyaluronic acid [Ex 21]”, the pIC50 was 5.56 in assay [2], 5.71 in assay [3], 5.74 in assay [4] and 5.69 in assay [5].
